Test results from patent US20230058623A1, “NOVEL HETEROARYL-TRIAZOLE COMPOUNDS AS PESTICIDES” (Bayer Aktiengesellschaft, priority 2019, published 2023).

Columns and labels:
Format in all cases: in vivo
[1] = system: adult engorged female ticks (Rhipicephalus microplus); experiment: Rhipicephalus (Boophilus) microplus injection test; conditions: 168 h, application rate 4 μg/tick, egg deposition after 7 days, read-out: activity (efficacy: infertile eggs)
Outline: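 Compound in DMSO (10 mg per 0.5 mL, then diluted with DMSO to test concentration); 1 μL injected into the abdomen of each of five engorged females, then held in a climate chamber. Fertile egg deposition checked at 7 days; efficacy 100% = all eggs infertile, 0% = all fertile.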

[2] = system: adult cat fleas (Ctenocephalides felis); experiment: Ctenocephalides felis in-vitro contact test, adult cat flea; conditions: application rate 5 μg/cm^2 (=500 g/ha), after 48 hours, read-out: activity (efficacy: fleas dead or moribund)
Outline: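 After 48 h of room-temperature exposure in tubes whose walls carried dried compound residue (5 μg/cm^2, from 900 ppm acetone solution), adult cat fleas (5-10 per tube) were heat-challenged at 45-50° C up to 5 min. Fleas unable to climb away were counted dead or moribund, expressed as % efficacy.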

[3] = system: adult brown dog ticks (Rhipicephalus sanguineus); experiment: Rhipicephalus sanguineus in-vitro contact test, adult brown dog ticks; conditions: application rate 5 μg/cm^2 (=500 g/ha), after 48 hours, read-out: activity (efficacy: ticks dead or moribund)
Outline: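 Efficacy is % of adult ticks dead or moribund 48 h after confinement at room temperature in tubes wall-coated from acetone (5 μg/cm² at 900 ppm). Scoring by heat challenge at 45-50 °C up to 5 min; immotile or uncoordinated ticks failing to climb count as affected.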

[4] = system: green peach aphid (Myzus persicae); experiment: Myzus persicae oral test; conditions: 120 h, read-out: activity (mortality)
Outline: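 Aphids of mixed population ingest the compound preparation by sucking through a parafilm sheet stretched over wells holding test solution plus IPL41 insect medium (33%+15% sugar). Kill rate in percent is determined five days later.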

[5] = system: larvae of the southern green stink bug (Nezara viridula); experiment: Nezara viridula spray test; conditions: 96 h, after 4 days, barley plants; for mortality at 100 g/ha: application rate 100 g/ha; for mortality at 500 g/ha: application rate 500 g/ha, read-out: activity (mortality)
Outline: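 Barley plants sprayed with the active compound in emulsifier-containing water, then infested with stink bug larvae. Mortality scored in % after 4 days, with 100% meaning all insects killed.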

[6] = system: fall armyworm larvae (Spodoptera frugiperda); experiment: Spodoptera frugiperda spray test; conditions: 168 h, application rate 100 g/ha, after 7 days, maize leaf sections
Outline: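 Percent larval kill read at day 7 on Zea mays leaf pieces that were spray-treated and, after drying, infested. Spray preparations made by dilution with emulsifier-containing water (1000 ppm).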

[7] = system: adult flies Musca domestica strain WHO-N; experiment: Musca domestica test (MUSCDO surface treatment & contact assay); conditions: 24 hours after contact, read-out: efficacy (mortality); for mortality at 4 mg/m2: surface concentration 4 mg/m^2, exposure 30 minutes; for mortality at 20 mg/m2: surface concentration 20 mg/m^2, exposure 30 minutes
Outline: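 Compound dissolved at 2 mg/ml in acetone with 2000 ppm RME, applied to glazed tile and dried; adult flies exposed on the surface for 30 min. Percent mortality scored 24 h after contact.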

[8] = system: adult unfed cat fleas (Ctenocephalides felis); experiment: Ctenocephalides felis oral test; conditions: 48 h, read-out: activity (mortality)
Outline: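 About 20 adult unfed cat fleas fed through parafilm on citrated cattle blood containing compound (from a DMSO concentrate). Blood held at 37° C, fleas at room temperature. Mortality in % scored after 2 days.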

Row | Structure (SMILES) | pest or weed control at 0.004 mg [1] | pest or weed control at 5 µg/cm2 [2] | pest or weed control at 5 µg/cm2, 500 g/ha [3] | mortality at 4 ppm [4] | mortality at 100 g/ha [5] | mortality at 500 g/ha [5] | mortality at 100 g/ha [6] | mortality at 4 mg/m2 [7] | mortality at 20 mg/m2 [7] | mortality at 100 ppm [8]
1 | C[C@H](NC(=O)c1cc(C(F)(F)F)cc(C(F)(F)F)c1)c1ncnn1-c1ccc(C(=O)N2CCOCC2)cn1 [Example I-2] | 100% | 100% | 100% | 100% | 100% | 100% | 100% | 80 to 100% | 80 to 100% | 
2 | Cc1nc([C@H](C)NC(=O)c2cc(C(F)(F)F)cc(C(F)(F)F)c2)n(-c2ncc(C(=O)N3CCOCC3)s2)n1 [Example I-4] | 100% | 80% | 100% | 100% |  |  | 100% | 80 to 100% |  | 100%
3 | CC1CN(C(=O)c2ccc(-n3ncnc3[C@H](C)NC(=O)c3cc(C(F)(F)F)cc(C(F)(F)F)c3)nc2)CC(C)O1 (stereo partly drawn) [Example I-5] | 100% | 100% | 100% | 100% |  |  | 100% | 80 to 100% | 80 to 100% | 100%
4 | COC1CCCN(C(=O)c2ccc(-n3ncnc3[C@H](C)NC(=O)c3cc(C(F)(F)F)cc(C(F)(F)F)c3)nc2)C1 (stereo partly drawn) [Example I-8] | 100% | 100% | 100% | 100% | 90% |  | 100% |  | 80 to 100% | 100%
5 | Cc1nc([C@H](C)NC(=O)c2cc(C(F)(F)F)cc(C(F)(F)F)c2)n(-c2ccc(C(=O)N3CCOCC3)cn2)n1 [Example I-9, N-[(1S)-1-{3-methyl-1-[5-(morpholin-4-ylcarbonyl)pyridin-2-yl]-1H-1,2,4-triazol-5-yl}ethyl]-3,5-bis(trifluoromethyl)benzamide] | 100% | 100% | 100% | 100% | 100% |  | 100% | 80 to 100% | 80 to 100% | 
6 | C[C@H](NC(=O)c1cc(C(F)(F)F)cc(C(F)(F)F)c1)c1ncnn1-c1ccc(C(=O)N2CCCC2)cn1 [Example I-11] | 100% | 100% | 100% | 100% | 100% |  | 100% |  | 80 to 100% | 
7 | COC1CN(C(=O)c2ccc(-n3ncnc3[C@H](C)NC(=O)c3cc(C(F)(F)F)cc(C(F)(F)F)c3)nc2)C1 [Example I-15] | 100% | 100% | 100% | 100% |  |  | 100% |  | 80 to 100% | 100%
8 | Cc1nc([C@H](C)NC(=O)c2cc(Cl)cc(C(F)(F)F)c2)n(-c2ccc(C(=O)N3CC(C)OC(C)C3)cn2)n1 (stereo partly drawn) [Example I-29] | 100% | 100% | 100% | 100% | 90% |  | 83% |  | 80 to 100% | 100%
9 | C[C@@H]1CN(C(=O)c2ccc(-n3ncnc3[C@H](C)NC(=O)c3cc(Cl)cc(C(F)(F)F)c3)nc2)C[C@H](C)O1 [Example I-31] | 100% | 100% | 100% | 100% | 90% |  | 100% |  | 80 to 100% | 100%
10 | C[C@H](NC(=O)c1cc(Cl)cc(C(F)(F)F)c1)c1ncnn1-c1ccc(C(=O)N2CCS(=O)(=O)CC2)cn1 [Example I-35] | 100% | 100% | 100% | 100% | 100% |  |  |  |  | 100%
11 | C[C@H](NC(=O)c1cc(Cl)cc(C(F)(F)F)c1)c1ncnn1-c1ccc(C(=O)N2CCSCC2)cn1 [Example I-36] | 100% | 100% | 100% | 100% | 100% |  |  | 80 to 100% | 80 to 100% | 100%
12 | C[C@@H]1CN(C(=O)c2ccc(-n3ncnc3[C@H](C)NC(=O)c3cc(C(F)(F)F)cc(C(F)(F)F)c3)nc2)CCO1 [Example I-69] |  | 100% | 100% | 100% |  |  | 100% | 80 to 100% | 80 to 100% | 
13 | C[C@H](NC(=O)c1cc(C(F)(F)F)cc(C(F)(F)F)c1)c1ncnn1-c1ccc(C(=O)N2CCS(=O)(=O)CC2)cn1 [Example I-75] |  | 100% | 100% | 100% |  | 100% | 100% | 80 to 100% | 80 to 100% | 
14 | Cc1nc([C@H](C)NC(=O)c2cc(C(F)(F)F)cc(C(F)(F)F)c2)n(-c2ccc(C(=O)N3CCS(=O)(=O)CC3)cn2)n1 [Example I-76] |  | 100% | 100% | 100% |  | 100% | 100% | 80 to 100% | 80 to 100% | 
15 | C[C@H](NC(=O)c1cc(C(F)(F)F)cc(C(F)(F)F)c1)c1ncnn1-c1ccc(C(=O)N2C[C@H](C)O[C@@H](C)C2)cn1 [Example I-94] | 100% | 100% | 100% |  | 100% |  | 100% | 80 to 100% | 80 to 100% | 100%
16 | C[C@@H]1CN(C(=O)c2ccc(-n3ncnc3[C@H](C)NC(=O)c3cc(OC(F)(F)F)cc(C4CC4)c3)nc2)C[C@H](C)O1 [Example I-114] | 100% | 100% | 100% | 100% |  |  | 100% | 80 to 100% | 80 to 100% | 100%
